Tested on: spontaneously hypertensive rats (SHRs)
Test: Hypotensive effects elicited by co-administration of CS-866 and hydrochlorothiazide (telemetry blood pressure in SHRs)
Assay type: in vivo, rat
Details: male SHRs, in mmHg (unit assumed)
Text: Hypotensive Effects Elicited by Co-Administration of CS-866 and Hydrochlorothiazide
Twenty-eight male spontaneously hypertensive rats aged 20 weeks (SHRs, SPF grade, purchased from Hoshino Laboratory Animals) were used. A transmitter of a telemeter (TA11PA-C40, DATA SCIENCES Inc.) was implanted in each SHR for recording blood pressure. After recovery from the surgical operations, blood pressure was monitored in the rats from the age of 24 weeks. The rats were orally given 0.5% carboxymethylceflulose solution (CMC, 2 ml/kg) for 7 successive days (once daily) by gavage. They were divided into 4 groups (7 SHRs per group) so as to give equally averaged blood pressure levels in the groups based on the blood pressure recorded on the 5th and 6th days after the CMC solution was initiated. The rats were orally treated with 0.5% CMC solution (2 ml/kg, control group) or test substance suspended in 0.5% CMC solution (2 ml/kg) for 14 successive days (once daily). Blood pressure was monitored 1 day prior to the drug administration and on the 7th and 14th days after the drug was initiated. The group composition, test substances, doses and blood pressure (the 24 hour mean blood pressure A standard error on the respective monitoring days) are summarized in Tables 1 and 2.
The test substances were hydrochlorothiazide (HCTZ), CS-866, and HCTZ and CS-866. HCTZ was prepared so as to be 10 mg/2 ml of final concentration with 0.5% CMC solution. CS-866 was suspended in 0.5% CMC solution so as to be at a final concentration of 1 mg/2 ml. CS-866 and HCTZ solution was prepared so as to be at a final concentration of [10 mg (HCTZ)+1 mg (CS-866)]/2 ml with 0.5% CMC solution.

[1] = 7th day after administration, oral once daily, HCTZ 10 mg/kg, CS-866 1 mg/kg, or both
[2] = 14th day after administration, oral once daily, HCTZ 10 mg/kg, CS-866 1 mg/kg, or both
[3] = 1 day before administration (baseline), oral, once daily, n=7 per group

Row | SMILES | Blood pressure levels (24 hour mean blood pressure ± standard error) [1] | Blood pressure levels (24 hour mean blood pressure ± standard error) [2] | Blood pressure levels (24 hour mean blood pressure ± standard error) [3]
1 | CCCc1nc(C(C)(C)O)c(C(=O)OCc2oc(=O)oc2C)n1Cc1ccc(-c2ccccc2-c2nnn[nH]2)cc1 [CS-866, (5-methyl-2-oxo-1,3-dioxolen-4-yl)methyl 4-(1-hydroxy-1-methylethyl)-2-propyl-1-[2′-(1H-tetrazol-5-yl)biphenyl-4-ylmethyl]imidazol-5-carboxylate] | 147 ± 4 | 148 ± 4 | 167 ± 6
2 | NS(=O)(=O)c1cc2c(cc1Cl)NCNS2(=O)=O [HCTZ, 6-chloro-3,4-dihydro-2H-1,2,4,-benzothiadiazin-7-sulfonamide 1,1-dioxide] | 152 ± 6 | 156 ± 6 | 165 ± 6

From patent US20050113367A1, “Pharmaceutical composition” (SANKYO COMPANY, LIMITED, priority 2000, published 2005)
